Structures are written as SMILES. Counter-ions that a name gives are not always drawn.

The target of this assay is T1, MT1-MMP (Homo sapiens, UniProt P50281).
T1 construct: initiator Met (ATG start codon from NdeI site) (N); made in house
In words: MT1-MMP fluorogenic substrate inhibition assay. The conditions noted are these: mean ± SEM of three independent experiments. The format is biochemical. The procedure:
The inhibitory activities of compounds of formula I on MT1-MMP, MMP1 (collagenase 1) and MMP2 (gelatinase A) can be determined as follows:
Stock solutions of substrate (MCA-Pro-Leu-Gly-Leu-Dpa-Ala-Arg-NH2 (SEQ ID NO: 1), C. G. Knight, et al, FEBS lett., 296, 263-266, (1992)), are prepared in 100% DMSO at a concentration 1.0 mM.
Stock solutions of inhibitors are prepared in 100% DMSO. The inhibitor is diluted into the assays from a solution in 100% DMSO, and controls substitute an equal volume of DMSO so that the final DMSO concentration from inhibitor and substrate dilutions in all assays is 6.0%. Assays are performed in assay buffer (150 mM NaCl, 10 mM CaCl2, 50 mM Tris-Cl pH7.5, 0.05% Brij-35) containing 6.0% DMSO once the substrate and inhibitor are diluted into it. […] The fluorescence changes are monitored using an excitation wavelength of 320 nm and an emission wavelength of 340 nm. […] The reaction mixture is preincubated with the inhibitor for 30 min, the reaction is started by the addition of MMP enzyme and the fluorescence intensity is measured for 10 min. […]
Expression and Purification: The subcloned CD-MT1-MMP is used to transfect E. coli strain BL21[DE3] (Hanahan, D. J. Mol. Biol. 1983; 166(4):557-80) and expressed as insoluble inclusion body materials. […] Fractions of 1 ml are collected and […] aliquots are analyzed by immunoblotting. […]

The term IC50 denotes the concentration that gives 50% inhibition. With `CN(C)c1ccc(CN(CC(=O)NO)S(=O)(=O)c2ccc(OCC3CC3)cc2)cc1` [Example 2, 2-[(4-Cyclopropylmethoxy-benzenesulfonyl)-(4-dimethylamino-benzyl-amino]-N-hydroxy-acetamide HCl salt], the IC50 came to 4.67 ± 0.17 nM.

Source of the values: patent US7659293B2, “α-Amino-N-hydroxy-acetamide derivatives” (Novartis AG, priority 2001, dated 2010).
